Test systems include ACHN; HL-60; HOP-92; Hs-578T; K562; LOX IMVI; MDA-MB-231; Malme-3M; NCI/ADR-RES; RPMI-8226; RXF 393; SF-295; SK-MEL-2; SK-OV-3; SN12C; SW-620; U-251; UACC-257; CAKI-1; SR.
Holding throughout (test): growth of human tumour cells (NCI), 48 h

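Each compound was tested at five concentrations against cells in 96-well plates for 48 hours. Here, GI50 denotes the concentration required for 50% inhibition of growth.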 The source made the active and inactive calls. Rule as the data show it: active = GI50 up to about 1.1 µM and inactive = higher. A value given as a limit tells only on which side of the number the result lay.

For `COc1ccc2nc(NCN3C(=O)c4ccccc4C3=O)sc2c1`, the GI50 with ACHN, in the assay with HL-60, in the assay with HOP-92, with Hs-578T, in the assay on K562 and with LOX IMVI was > 100 µM (inactive) throughout. For the same compound, the GI50 with MDA-MB-231, in the assay on Malme-3M, with NCI/ADR-RES, in the assay with RPMI-8226, in the assay on RXF 393 and in the assay on SF-295 was > 100 µM (inactive) in each case. Also, the GI50 with SK-MEL-2, in the assay on SK-OV-3, in the assay on SN12C, with SW-620, with U-251 and with UACC-257 was > 100 µM (inactive) in each case.

As to `CCOC(=O)c1ccc(-c2cc(C)no2)[nH]1`, the GI50 with ACHN was > 100 µM (inactive); in the assay on CAKI-1, 28.8 µM (inactive); in the assay on HL-60, 67.5 µM (inactive); with HOP-92, > 100 µM (inactive); with K562 it was 32.5 µM (inactive); with LOX IMVI, > 100 µM (inactive). The GI50 in the assay on MDA-MB-231 was 76 µM (inactive); in the assay with Malme-3M, > 100 µM (inactive); in the assay with NCI/ADR-RES, 46.7 µM (inactive); with RPMI-8226, > 100 µM (inactive); in the assay with RXF 393, > 100 µM (inactive); with SF-295, > 100 µM (inactive). In addition, the GI50 in the assay with SK-MEL-2 is > 100 µM (inactive); with SK-OV-3, > 100 µM (inactive); with SN12C, 33 µM (inactive); with SW-620 it was 45.3 µM (inactive); in the assay with U-251 it was 98.4 µM (inactive); in the assay with UACC-257, > 100 µM (inactive).

Turning to `O=C1NC(=O)c2ccc([N+](=O)[O-])c3cccc1c23`, the GI50 is 19 µM (inactive) in the assay with ACHN; 23.5 µM (inactive) in the assay with CAKI-1; 20 µM (inactive) in the assay on HOP-92; 25.2 µM (inactive) in the assay on Hs-578T; 10.9 µM (inactive) in the assay on K562; 17.1 µM (inactive) in the assay with MDA-MB-231. The GI50 in the assay on RPMI-8226 is 14.5 µM (inactive); in the assay with RXF 393 it was 15.5 µM (inactive); in the assay with SF-295, 17.6 µM (inactive); with SK-MEL-2 it was 32.3 µM (inactive); with SK-OV-3, 23.1 µM (inactive); in the assay on SN12C, 17.4 µM (inactive). Further, the GI50 was 13 µM (inactive) in the assay on SW-620, 15.4 µM (inactive) with U-251 and 16.9 µM (inactive) in the assay with UACC-257.

As for `CC1=C(C(=O)Nc2cccc3c2C(=O)NC3=O)CC(C(=O)Nc2cccc3c2C(=O)NC3=O)=C(C)N1`, the GI50 in the assay with ACHN, in the assay with CAKI-1, in the assay on HL-60, in the assay with HOP-92, in the assay on Hs-578T and in the assay on K562 was > 100 µM (inactive) each time. Besides, the GI50 in the assay on LOX IMVI, in the assay on MDA-MB-231, in the assay with Malme-3M, in the assay on RPMI-8226, in the assay on RXF 393 and in the assay on SF-295 was > 100 µM (inactive) in each case. The GI50 with SK-MEL-2, with SK-OV-3, in the assay with SN12C, in the assay on SR, with SW-620 and with U-251 was > 100 µM (inactive) in each case. Also, in the assay on UACC-257, the GI50 was > 100 µM (inactive).

Take `Cc1ccc(/C=C2\CNC/C(=C\c3ccc(C)cc3)C2=O)cc1`: the GI50 in the assay on ACHN is 2.19 µM (inactive); in the assay on CAKI-1, 2.46 µM (inactive); with HL-60, 0.479 µM (active); in the assay with HOP-92 it was 4.54 µM (inactive); with Hs-578T, 1.89 µM (inactive); in the assay on K562 it was 0.323 µM (active). Further, the GI50 is 0.615 µM (active) in the assay on LOX IMVI; 2.91 µM (inactive) with MDA-MB-231; 14.4 µM (inactive) in the assay on Malme-3M; 0.248 µM (active) in the assay on RPMI-8226; 3.54 µM (inactive) in the assay with SF-295; 9.02 µM (inactive) in the assay on SK-MEL-2. For the same compound, the GI50 in the assay on SK-OV-3 is 2.4 µM (inactive); in the assay on SN12C it was 2.52 µM (inactive); in the assay with SR, 0.44 µM (active); in the assay with SW-620, 1.12 µM (inactive); in the assay with U-251, 0.341 µM (active); in the assay with UACC-257, 6.46 µM (inactive).

Turning to `CCOP(=O)(OCC)[C@H]1OC(C)(C)O[C@@H]1CO`, the GI50 in the assay on ACHN, in the assay with CAKI-1, in the assay with HL-60, with HOP-92, in the assay with Hs-578T and in the assay on LOX IMVI was > 100 µM (inactive) in each case. Also, the GI50 in the assay on MDA-MB-231, in the assay with Malme-3M, in the assay on NCI/ADR-RES, in the assay with RPMI-8226, with SF-295 and in the assay with SK-MEL-2 was > 100 µM (inactive) in each case. The GI50 with SK-OV-3, in the assay with SN12C, with SW-620, with U-251 and in the assay with UACC-257 was > 100 µM (inactive) in each case.

As for `COc1cc(/C=C2\CCC/C(=C\c3ccc(OC(=O)CCCCC4CCSS4)c(OC)c3)C2=O)ccc1OC(=O)CCCCC1CCSS1` (stereo unspecified), the GI50 in the assay with ACHN, with HL-60, in the assay on Hs-578T, in the assay with K562, in the assay with LOX IMVI and in the assay with MDA-MB-231 was > 100 µM (inactive) in each case. Further, the GI50 with Malme-3M, with NCI/ADR-RES, with RPMI-8226, in the assay on RXF 393, with SF-295 and with SK-MEL-2 was > 100 µM (inactive) throughout. In addition, the GI50 with SK-OV-3, in the assay with SN12C, in the assay with SW-620, with U-251 and in the assay on UACC-257 was > 100 µM (inactive) each time.

As to `COc1ccc(C2CC(=O)CC(c3ccc(OC)cc3)C23C(=O)NC(=O)NC3=O)cc1` (stereo unspecified), the GI50 in the assay on ACHN is 31.3 µM (inactive); with CAKI-1, 33.1 µM (inactive); with HL-60 it was 27 µM (inactive); with HOP-92, 25.1 µM (inactive); with K562, 37.9 µM (inactive); in the assay on LOX IMVI, 30.5 µM (inactive). The GI50 was 39.1 µM (inactive) in the assay on MDA-MB-231; 25.9 µM (inactive) in the assay on Malme-3M; 34.4 µM (inactive) with NCI/ADR-RES; 45.9 µM (inactive) in the assay with RXF 393; 38 µM (inactive) in the assay on SF-295; 18.5 µM (inactive) with SK-MEL-2. In addition, the GI50 with SN12C is 46.8 µM (inactive); in the assay on SR, 30.4 µM (inactive); in the assay on SW-620, 18.7 µM (inactive); in the assay with U-251, 57.8 µM (inactive); with UACC-257 it was 38.1 µM (inactive).

Turning to `COc1cc(/C=C2\C[C@H]3[C@@H]4CCc5cc(OCCN6CCCC6)ccc5[C@H]4CC[C@]3(C)C2=O)cc(OC)c1OC`, the GI50 in the assay on ACHN was 1.79 µM (inactive); in the assay on CAKI-1, 1.75 µM (inactive); in the assay with K562, 1.62 µM (inactive); in the assay on LOX IMVI it was 1.69 µM (inactive); in the assay on MDA-MB-231, 1.79 µM (inactive); with NCI/ADR-RES, 1.91 µM (inactive). The GI50 with RPMI-8226 is 1.66 µM (inactive); in the assay on RXF 393 it was 1.57 µM (inactive); in the assay on SF-295, 1.79 µM (inactive); in the assay on SK-MEL-2, 2.26 µM (inactive); in the assay on SK-OV-3, 2.7 µM (inactive); in the assay with SN12C, 1.72 µM (inactive). For the same compound, the GI50 in the assay on SR was 0.314 µM (active); with SW-620 it was 1.91 µM (inactive); in the assay on UACC-257, 2.2 µM (inactive).

`CCn1c(=O)c2nc(SC)sc2n(-c2ccccc2)c1=O`: the GI50 with ACHN is > 100 µM (inactive); in the assay with HL-60 it was > 100 µM (inactive); in the assay with HOP-92, 54.1 µM (inactive); with K562, > 100 µM (inactive); in the assay on LOX IMVI, > 100 µM (inactive); in the assay on MDA-MB-231, > 100 µM (inactive). The GI50 in the assay with Malme-3M, in the assay with NCI/ADR-RES, in the assay on RPMI-8226, in the assay with RXF 393, in the assay on SF-295 and in the assay with SK-MEL-2 was > 100 µM (inactive) each time. The GI50 in the assay on SK-OV-3, in the assay on SN12C, in the assay on SR, in the assay with SW-620, with U-251 and with UACC-257 was > 100 µM (inactive) throughout.

Regarding `CC(C)C1=CC23CCC4C(C)(C(=O)O)CCCC4(C)C2CC1C1C(=O)N(c2ccc(C(=O)O)cc2)C(=O)C13` (stereo unspecified), the GI50 with ACHN, in the assay with CAKI-1, with HL-60, in the assay on HOP-92, in the assay on Hs-578T and in the assay with K562 was > 100 µM (inactive) each time. Further, the GI50 in the assay with LOX IMVI, in the assay with MDA-MB-231, with Malme-3M, in the assay with NCI/ADR-RES, in the assay with RPMI-8226 and in the assay with RXF 393 was > 100 µM (inactive) throughout. In addition, the GI50 in the assay with SF-295, with SK-MEL-2, in the assay with SK-OV-3, with SN12C, with SW-620 and with U-251 was > 100 µM (inactive) each time. Further, in the assay with UACC-257, the GI50 was > 100 µM (inactive).

The values above are taken from ChEMBL document CHEMBL1201862, “PubChem BioAssay data set” (2004).
